The text below walks through data of patent publication US20240115711A1, “Novel Bifunctional Molecules For Targeted Protein Degradation” (Amphista Therapeutics Limited, priority 2020, published 2024).

In this test the target is T1, mutant EGFR (L858R) (Homo sapiens, UniProt P00533, L858R/T790M).
T1 construct: endogenous in cells; host or cells: NCI-H1975
Briefly: Assay 8 - Degradation of mutant EGFR by immunoblot (NCI-H1975 cells). As to conditions: after 24 h treatment with 1000 nM. In kind it is cell-based. The protocol:
1.8 Assay 8—Degradation of Mutant EGFR by Immunoblot.
NCI-H1975 (1.5×10^5) cells were seeded in 12-well plates (1 mL medium) overnight prior to 24 h treatment with test compounds at the desired concentration (DMSO final concentration 0.1%). After 24 h incubation, cells were washed with PBS and lysed with RIPA buffer (Sigma) supplemented with 1× protease inhibitor cocktail (Roche) and 1 U/mL Benzonase (Merck). Lysates were clarified by centrifugation (17,000×g, 20 min, 4° C.) and the total protein content of the supernatant was quantified using a BCA assay. Samples were prepared using equal amounts of total protein and LDS sample buffer (Invitrogen). […] Blots were visualised using a Bio-Rad ChemiDoc MP Imaging System, and band quantification was performed using Image Studio software (LiCor). […] Degradation data was plotted and analysed using Prism (Graphpad, version 8).
The degradation of target protein mutant EGFR (L858R) was detected according to the procedure outlined in assay 8 for the compound A67.
Background: Immunoblotting shows a protein as a band on a membrane.

T1 sequence (P00533 25-1210 T790M/L858R): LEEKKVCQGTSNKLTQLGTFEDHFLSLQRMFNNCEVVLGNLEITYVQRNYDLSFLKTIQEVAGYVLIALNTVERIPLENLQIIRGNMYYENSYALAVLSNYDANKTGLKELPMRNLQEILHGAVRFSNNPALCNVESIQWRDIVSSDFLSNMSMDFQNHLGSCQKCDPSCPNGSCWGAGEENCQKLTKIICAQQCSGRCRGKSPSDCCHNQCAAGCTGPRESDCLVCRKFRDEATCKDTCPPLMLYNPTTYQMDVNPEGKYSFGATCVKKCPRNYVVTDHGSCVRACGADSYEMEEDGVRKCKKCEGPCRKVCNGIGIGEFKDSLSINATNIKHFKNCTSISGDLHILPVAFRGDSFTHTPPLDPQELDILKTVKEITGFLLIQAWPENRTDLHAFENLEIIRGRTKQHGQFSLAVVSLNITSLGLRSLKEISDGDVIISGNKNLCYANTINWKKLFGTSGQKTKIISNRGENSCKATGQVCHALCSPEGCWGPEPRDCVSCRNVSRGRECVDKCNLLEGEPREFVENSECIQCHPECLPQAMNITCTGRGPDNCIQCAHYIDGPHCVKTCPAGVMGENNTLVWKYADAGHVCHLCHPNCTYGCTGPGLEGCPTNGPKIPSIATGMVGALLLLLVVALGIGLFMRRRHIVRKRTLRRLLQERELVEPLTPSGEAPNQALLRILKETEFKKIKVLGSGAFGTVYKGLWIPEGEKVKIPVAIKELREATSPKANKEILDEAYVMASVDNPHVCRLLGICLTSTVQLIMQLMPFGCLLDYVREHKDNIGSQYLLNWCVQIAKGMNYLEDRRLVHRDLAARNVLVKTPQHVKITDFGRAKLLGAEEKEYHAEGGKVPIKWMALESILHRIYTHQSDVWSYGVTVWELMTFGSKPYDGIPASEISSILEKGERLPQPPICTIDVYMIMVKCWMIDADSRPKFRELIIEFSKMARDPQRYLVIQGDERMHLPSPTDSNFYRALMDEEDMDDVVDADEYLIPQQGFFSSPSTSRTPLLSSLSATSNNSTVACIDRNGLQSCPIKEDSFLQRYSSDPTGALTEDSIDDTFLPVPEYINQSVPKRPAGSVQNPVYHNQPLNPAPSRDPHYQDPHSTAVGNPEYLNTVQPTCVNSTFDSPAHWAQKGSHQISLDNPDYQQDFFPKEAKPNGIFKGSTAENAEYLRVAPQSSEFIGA

For the compound `CCCC(c1ccc(CCC(=O)NCCCN2CCN(CCCNC(=O)c3nn(C(C)C)c4cc(Nc5ccnc(N6CCC(OC)CC6)n5)ncc34)CC2)cc1)N(C)C(=O)/C(C#N)=C/c1nccs1` (stereo not shown) [Example A67, (E)-N-(3-(4-(3-(3-(4-(1-(2-cyano-N-methyl-3-(thiazol-2-yl)acrylamido)butyl)phenyl)propanamido)propyl)piperazin-1-yl)propyl)-1-isopropyl-6-((2-(4-methoxypiperidin-1-yl)pyrimidin-4-yl)amino)-1H-pyrazolo[4,3-c]pyridine-3-carboxamide], the “residual EGFR (L858R) abundance” value is reported as “less than 50%”.
